Data published in ChEMBL document CHEMBL1150433, “Synthesis and activity of conformationally-constrained macrocyclic norstatine-based inhibitors of HIV protease” (Bioorg Med Chem Lett, 1996).

Experiments:
[1] = molecular target: Human immunodeficiency virus type 1 protease (Human immunodeficiency virus 1, UniProt Q72874); experiment: Compound was evaluated for the inhibition of HIV protease
MT2 = experiment: Antiviral activity against […] RF infected MT-2 cells; type: functional, cell-based; conditions: Homo sapiens

## CC(C)(C)NC(=O)[C@@H]1CCCN1C(=O)[C@H](O)[C@@H]1Cc2ccc(cc2)OCCCOc2cc3ccccc3cc2C(=O)N[C@@H](CC(N)=O)C(=O)N1
[1]
  IC50: 3800 nM

## CC(C)(C)OC(=O)[C@@H]1CCCN1C[C@@H](O)[C@H](Cc1ccccc1)NC(=O)[C@H](CC(N)=O)NC(=O)c1ccc2ccccc2n1
[1]
  IC50: 23 nM

## CC(C)(C)NC(=O)[C@@H]1CCCN1C(=O)[C@@H](O)[C@@H]1Cc2ccc(cc2)OCCCOc2cc3ccccc3cc2C(=O)N[C@@H](CC(N)=O)C(=O)N1
MT2
  EC50: 76 nM
[1]
  IC50: 19 nM
